Reference: patent US20090005253A1, “Double Hybrid System Based on Gene Silencing by Transcriptional Interference” (AVENTIS PHARMA S.A., priority 2004, published 2009)

Tested on: Fe65/App interaction
Assay: growth restoration test on solid medium, yRB49 (rY2H UI interference system) expressing the Fe65/App interaction
Assay type: cell-based
Conditions: medium free of histidine, 1 mM 3-AT; 1 μl at 0.125%, 0.25%, 0.5% or 1% at center of dish; 30° C., 48 hours
Experimental: The strain containing the UI transcriptional interference system (yRB49) and cotransformed with the plasmids pRB34 and pRB35 (Fe65/App interaction) was plated out onto medium without histidine and containing 1 mM of 3-AT. […] The dishes were incubated at 30° C. for 48 hours.
The strain containing the UI transcriptional interference system (yRB49) was cotransformed with the pairs of plasmids pRB34 and pRB35 (Fe65/App interaction) or pDBT-mdm2 and pVP16-p53Nt (mdm2/p53 interaction). The strain containing the plasmids pRB34 and pRB35 (Fe65/App interaction) was plated out onto 5 dishes of medium without histidine supplemented with 1 mM of 3-AT (top row); the strain containing the plasmids pDBT-mdm2 and pVP16-p53Nt (mdm2/p53 interaction) was similarly plated out onto 5 dishes of medium without histidine supplemented with 20 mM of 3-AT (bottom row).
A control dish was prepared for each interaction by depositing 1 μl of histidine at 0.125% w/v at the center of this dish. A different molecule, A, B, C or D, was deposited onto each of the other 4 dishes, according to the following scheme: in the upper left corner, 1 μl of the product at a concentration of 0.1 mM is deposited; in the upper right corner, 1 μl of the same product at a concentration of 1 mM is deposited; at the center, 1 μl of this product at 10 mM is deposited. […]

SMILES: N[C@@H](Cc1c[nH]cn1)C(=O)O [histidine]
- restoration of growth around the deposit by nutrient (FIG. 8C): capable of restoring the growth
